Source: patent publication EP4722365A1, “DOUBLE-STRANDED NUCLEOTIDE COMPOUND FOR METABOLIC DISEASES AND USE THEREOF” (Visirna Therapeutics (Suzhou) Co., Ltd., priority 2023, dated 2024)

Experiments:
DGAT2 [1] = assay: Inhibition rate on target gene DGAT2 mRNA in primary human hepatocytes (PHHs), free uptake; assay type: cell-based
Experimental: The test compound was prepared into a 100 µM/200 µM mother liquor with PBS.
Human hepatocytes (PHHs). PHHs were revived and cultured in InvitroGRO CP medium (BIOIVT article number S0331) containing 10% fetal bovine serum (FBS, Gibco article number 10091148) and 1% penicillin-streptomycin (PS, HyClone article number SV30010).
PHHs (5.4 × 10^4 cells/well) were inoculated into a 96-well plate, and siRNA was added into the cell while plating. The compound entered the cells through free uptake. […] concentration points (100 nM, 20 nM, 4 nM, 0.8 nM, 0.16 nM, 0.032 nM, and 0.0064 nM) were set for siRNA test, and 2 wells were measured in parallel. At the same time, a compound-free control group containing PBS was set up. The cells were cultured in an incubator at 37°C with 5% CO2.
48 hrs later, the medium was removed and the cells were collected for RNA extraction. Total RNA was extracted by using RNeasy® 96 Kit (QIAGEN-74182) according to the instructions for use of the kit. cDNA was synthesized by using HiScript III RT SuperMix for qPCR (+gDNA wiper) (Vazyme article number R323-01) following the instructions.
The target gen cDNA was detected by qPCR, and the internal reference gene GAPDH cDNA was also detected. 8 µL of prepared PCR reaction solution and 2 µL of sample cDNA were added into a 384 well plate. […]

DGAT2 [2] = assay: Inhibitory activity on the target gene DGAT2 in non-naive Cynomolgus macaque (Example 10, liver biopsy qPCR); assay type: in vivo
Experimental: The in-vivo experimental designs for subcutaneous injection in non-naive Cynomolgus macaque, the administration and the sample collection method were shown in the table below.
The day of administration to non-naive Cynomolgus macaque was defined as day 1, the day before it was day 0, the day after it was day 2, and so on. Each group had 2 animals. On days 1, 4, 8, 15, 22, 29, 36, 43, 50, and 57, the animals in Groups 1 and 2 were injected with the solvent or 4 mg/kg (0.5mL/kg) of the positive reference compound. On days 1 and 29, the animals in Groups 3 to 7 were injected subcutaneously with 0.5 mL/kg of the test compound.
On day 0 (0 h) before administration by SC, and days 7, 15, 28, 57, and 99 after administration, the liver sample was collected. Collection method: The animals was fasted for 12-16 hrs before sample collection. Collection of liver biopsy tissue: The collection process would be operated and recorded according to the SOP of the research institution. The location of the liver was determined by B ultrasound scan, the right liver was mainly used, and the gallbladder and major blood vessels were avoided. The biopsy needle was inserted under the guidance of the B-ultrasound probe. Guided by the image on the B-ultrasound screen, the needle entered the liver away from the gallbladder and major blood vessels, and the materials were sampled by puncture. After biopsy, the biopsy needle was withdrawn and the samples were collected. The obtained samples were immediately immersed in PBS with RNAlater®, and allowed to stand overnight at 4°C. Then the residual liquid was sucked off, and the remainder was stored at -80°C or below until it was transported in the presence of dry ice and detected.
Trizol was homogenized by Qiagen Tissue Lyser II at 26 Hz for 2 min and lyzed at room temperature for 5 min. 1 mL of the supernatant was taken, added to 200 uL of chloroform, shaken for 15 s, allowed to stand for 3 min, and centrifuged. The supernatant was collected, added with an equal volume of isopropanol, and stood overnight at -20°C for precipitation. The precipitate was washed twice with 70%, and dissolved in water without RNase. The concentration of the RNA sample was determined by Nanodrop ONE and diluted to 200 ng/µL with water without RNase for reverse transcription.
The experimental steps of reverse transcription could be made reference to the instruction of HiScript® III RT SuperMix for qPCR (+gDNA wiper). Briefly, a gDNA removal mixture was prepared according to the table below. A mixture (11 µL/sample) of 4 x gDNA wiper Mix and RNase-Free ddH2O and 1000 ng RNA sample (5 µL RNA sample with a concentration of 200 ng/µL) were added to a 96-well PCR reaction plate, incubated at 42°C for 2 min, and cooled on ice. 4 µL 5 x HiScript III qRT SuperMix and the DNA removed product from the previous step were added to a 96-well PCR reaction plate for reverse transcription. Reaction conditions: 37°C for 15 min; and 85°C for 5 sec. The cDNA was stored at 4°C for further analysis.
The method for detecting the expression levels of DGAT2 and GAPDH genes in the liver of Cynomolgus macaque by quantitative PCR was briefly described as follows: As shown in the table below, a qPCR reaction mixture was prepared, and 2 µL of a cDNA sample diluted 2 times with RNase-free water was added for PCR reaction. Reaction conditions: 95°C for 10 min; and 40 cycles of 95°C for 15 sec, and 60°C for 1 min.
All values were normalized to the average of the group on day 0.

[3] = 3mpk subcutaneous on days 1 and 29, normalized to day 0
[4] = 10mpk subcutaneous on days 1 and 29, normalized to day 0

## dS319: sense (invAb)*acaccauaGfAfCfuauuugcuua[L96]; anti-sense Vpu*Af*a*GfcAfaauagUfcUfaUfgGfuGf* u
DGAT2 [1]
  IC50: 0.0623 nM
DGAT2 [2]; [3]
  Average inhibition rate, % (D28): 86.6%
  Average inhibition rate, % (D56): 91.1%
  Average inhibition rate, % (D99): 72.2%
DGAT2 [2]; [4]
  Average inhibition rate, % (D28): 96.0%
  Average inhibition rate, % (D56): 97.9%
  Average inhibition rate, % (D99): 89.1%
